The text below walks through data of ChEMBL document CHEMBL1615344, “Cerep in vitro phospholipidosis assay data”.

A short description of data set [1]: (§1) Cerep Phospholipidosis assay (HepG2 cells). It counts as ADME, cell-based. Particulars: human, HepG2 cells; read-out: Maximum test concentration that did not exhibit cytotoxicity.
The subject of data set [2] is Phospholipidosis. Described as §1. It is filed as ADME, cell-based. Particulars: human, hepg2.

With `CC(=O)Nc1ccc(O)cc1` [ACETAMINOPHEN], the MNTC in data set [1] came out at 100 µM. Moreover, in data set [2], the “Phospholipidosis as % of positive control” value (from here on “Phospholipidosis as %”) turned out to be 0.3%.

Take `Nc1c(Br)cc(Br)cc1CN[C@H]1CC[C@H](O)CC1` [AMBROXOL]: in data set [1], the MNTC amounted to 50 µM. The “Phospholipidosis as %” value in data set [2] came out at 29.7%.

Regarding `NCC[C@H](O)C(=O)N[C@@H]1C[C@H](N)[C@@H](O[C@H]2O[C@H](CN)[C@@H](O)[C@H](O)[C@H]2O)[C@H](O)[C@H]1O[C@H]1O[C@H](CO)[C@@H](O)[C@H](N)[C@H]1O` [AMIKACIN], the MNTC in data set [1] stood at 25 µM. In addition, the “Phospholipidosis as %” value in data set [2] is 4.9%.

For the compound `CCCCc1oc2ccccc2c1C(=O)c1cc(I)c(OCCN(CC)CC)c(I)c1` [AMIODARONE], the MNTC in data set [1] was found to be 6.25 µM. Also, in data set [2], the “Phospholipidosis as %” value was 38.4%.

On to `CN(C)CCC=C1c2ccccc2CCc2ccccc21` [AMITRIPTYLINE], for which the MNTC in data set [1] is 20 µM. Moreover, in data set [2], the “Phospholipidosis as %” value is 49.8%.

Regarding `CC[C@H]1OC(=O)[C@H](C)[C@@H](O[C@H]2C[C@@](C)(OC)[C@@H](O)[C@H](C)O2)[C@H](C)[C@@H](O[C@@H]2O[C@H](C)C[C@H](N(C)C)[C@H]2O)[C@](C)(O)C[C@@H](C)CN(C)[C@H](C)[C@@H](O)[C@]1(C)O` [AZITHROMYCIN], the MNTC in data set [1] came out at 25 µM. For the same compound, the “Phospholipidosis as %” value in data set [2] was 26.7%.

Take `CN(Cc1cc(Br)cc(Br)c1N)C1CCCCC1` [BROMHEXINE]: the MNTC in data set [1] is 50 µM. Moreover, the “Phospholipidosis as %” value in data set [2] turned out to be 30.1%.

Consider `CCN(CC)CCCC(C)Nc1ccnc2cc(Cl)ccc12` (stereo not drawn) [CHLOROQUINE], for which, in data set [1], the MNTC was 10 µM. Further, the “Phospholipidosis as %” value in data set [2] is 22.8%.

For `CN(C)CCCN1c2ccccc2Sc2ccc(Cl)cc21` [CHLORPROMAZINE], the MNTC in data set [1] was determined as 5 µM. Moreover, the “Phospholipidosis as %” value in data set [2] was found to be 54.7%.

Take `CN(C)CCCC1(c2ccc(F)cc2)OCc2cc(C#N)ccc21` (stereo not drawn) [CITALOPRAM]: the MNTC in data set [1] came to 100 µM. Moreover, the “Phospholipidosis as %” value in data set [2] is recorded as 19.6%.

Consider `CN1CCN(C2=Nc3cc(Cl)ccc3Nc3ccccc32)CC1` [CLOZAPINE], for which the MNTC in data set [1] was found to be 12.5 µM. Besides, in data set [2], the “Phospholipidosis as %” value worked out at 18.9%.

`CN(C)CCC=C1c2ccccc2COc2ccccc21` [DOXEPIN]: the MNTC in data set [1] was found to be 25 µM. The “Phospholipidosis as %” value in data set [2] was 36.4%.

Take `CC[C@H]1OC(=O)[C@H](C)[C@@H](O[C@H]2C[C@@](C)(OC)[C@@H](O)[C@H](C)O2)[C@H](C)[C@@H](O[C@@H]2O[C@H](C)C[C@H](N(C)C)[C@H]2O)[C@](C)(O)C[C@@H](C)C(=O)[C@H](C)[C@@H](O)[C@]1(C)O` [ERYTHROMYCIN]: the MNTC in data set [1] amounted to 50 µM. For the same compound, the “Phospholipidosis as %” value in data set [2] stood at 61.9%.

Regarding `CNCCC(Oc1ccc(C(F)(F)F)cc1)c1ccccc1` (stereo not drawn) [FLUOXETINE], the MNTC in data set [1] was determined as 5 µM.

In the case of `O=C(CCCN1CCC(O)(c2ccc(Cl)cc2)CC1)c1ccc(F)cc1` [HALOPERIDOL], in data set [1], the MNTC was 12.5 µM. Further, the “Phospholipidosis as %” value in data set [2] is on record as 42.1%.

In the case of `OCCOCCN1CCN(C(c2ccccc2)c2ccc(Cl)cc2)CC1` (stereo not drawn) [HYDROXYZINE], in data set [1], the MNTC was determined as 25 µM. For the same compound, in data set [2], the “Phospholipidosis as %” value is 35.8%.

Regarding `CN(C)CCCN1c2ccccc2CCc2ccccc21` [IMIPRAMINE], the MNTC in data set [1] amounted to 6.25 µM. The “Phospholipidosis as %” value in data set [2] is 2.1%.

As for `CC(=O)N1CCN(c2ccc(OCC3COC(Cn4ccnc4)(c4ccc(Cl)cc4Cl)O3)cc2)CC1` (stereo not drawn) [KETOCONAZOLE], the MNTC in data set [1] was determined as 12.5 µM. Besides, the “Phospholipidosis as %” value in data set [2] is 52%.

As to `CC(CCc1ccccc1)NCC(O)c1ccc(O)c(C(N)=O)c1` (stereo not drawn) [LABETALOL], the MNTC in data set [1] worked out at 25 µM. The “Phospholipidosis as %” value in data set [2] turned out to be 5.3%.

As to `CNCCCC12CCC(c3ccccc31)c1ccccc12` [MAPROTILINE], the MNTC in data set [1] is 6.25 µM. Also, in data set [2], the “Phospholipidosis as %” value was determined as 42.2%.

In the case of `Cc1cccc(CN2CCN(C(c3ccccc3)c3ccc(Cl)cc3)CC2)c1` (stereo not drawn) [MECLIZINE], the MNTC in data set [1] was 25 µM. In data set [2], the “Phospholipidosis as %” value turned out to be 10.5%.

On to `CC1=CC(=O)c2ccccc2C1=O` [MENADIONE], for which, in data set [1], the MNTC came out at 3.13 µM. The “Phospholipidosis as %” value in data set [2] is on record as 1%.

Take `CC1COc2c(N3CCN(C)CC3)c(F)cc3c(=O)c(C(=O)O)cn1c23` (stereo not drawn) [OFLOXACIN]: in data set [1], the MNTC came out at 50 µM. For the same compound, the “Phospholipidosis as %” value in data set [2] is listed as 0.3%.

On to `C1CCC(C(CC2CCCCN2)C2CCCCC2)CC1` (stereo not drawn) [PERHEXILINE], for which, in data set [1], the MNTC came to 3.13 µM. Moreover, the “Phospholipidosis as %” value in data set [2] was determined as 36%.

Regarding `CC(C)NCC(O)COc1cccc2ccccc12` (stereo not drawn) [PROPRANOLOL], the MNTC in data set [1] was found to be 25 µM. Moreover, the “Phospholipidosis as %” value in data set [2] turned out to be 36%.

With `C=C[C@H]1C[N@@]2CC[C@H]1C[C@@H]2[C@@H](O)c1ccnc2ccc(OC)cc12` [QUINIDINE], the MNTC in data set [1] amounted to 25 µM. The “Phospholipidosis as %” value in data set [2] is reported as 3.2%.

`CN[C@H]1CC[C@@H](c2ccc(Cl)c(Cl)c2)c2ccccc21` [SERTRALINE]: in data set [1], the MNTC was 3.13 µM. For the same compound, the “Phospholipidosis as %” value in data set [2] was 100%.

As to `CC(C)NCC(O)c1ccc(NS(C)(=O)=O)cc1` (stereo not drawn) [SOTALOL], in data set [1], the MNTC was determined as 50 µM. Besides, the “Phospholipidosis as %” value in data set [2] is given as 0.3%.

`CC/C(=C(\c1ccccc1)c1ccc(OCCN(C)C)cc1)c1ccccc1` [TAMOXIFEN]: the MNTC in data set [1] was 6.25 µM. Also, in data set [2], the “Phospholipidosis as %” value was 53%.

As for `CCN(CC)CCOc1ccc2c(c1)C(=O)c1cc(OCCN(CC)CC)ccc1-2` [TILORONE], the MNTC in data set [1] is 3.13 µM. Further, the “Phospholipidosis as %” value in data set [2] is listed as 20.2%.

As for `CCN(CC)CCOc1ccc(C(O)(Cc2ccc(Cl)cc2)c2ccc(C)cc2)cc1` (stereo not drawn) [TRIPARANOL], the MNTC in data set [1] worked out at 3.13 µM. Further, the “Phospholipidosis as %” value in data set [2] turned out to be 44.9%.

Regarding `CCCC(CCC)C(=O)O` [VALPROIC ACID], the MNTC in data set [1] turned out to be 100 µM. For the same compound, in data set [2], the “Phospholipidosis as %” value was determined as 0.2%.
